The supplement of paper PMC11451515

Test system: NOMO1
Assay: cell viability relative to DMSO control; higher = less cytotoxic
Settings: 48 h
Outline: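 Viability is a per-plate percentage relative to DMSO wells, with cell-free wells as background. CellTiter-Glo One luminescence was read after 48 h at 37°C on 1536-well plates (5 μl) of NOMO1 or SEM (500 cells/well) or P12-Ichikawa (1000 cells/well) leukemia cells. The cells had been adapted for at least four passages in each medium and pin-dosed with library compounds in DMSO from 47 μM to 0.79 nM in 11 threefold steps.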

[1] = RPMI 5 mM glucose + 10% FBS, 0.000781 µM
[2] = RPMI 5 mM glucose + 10% FBS, 0.00234 µM
[3] = RPMI 5 mM glucose + 10% FBS, 0.00702 µM
[4] = RPMI 5 mM glucose + 10% FBS, 0.0211 µM
[5] = RPMI 5 mM glucose + 10% FBS, 0.0632 µM
[6] = RPMI 5 mM glucose + 10% FBS, 0.19 µM
[7] = RPMI 5 mM glucose + 10% FBS, 0.569 µM
[8] = RPMI 5 mM glucose + 10% FBS, 1.71 µM
[9] = RPMI 5 mM glucose + 10% FBS, 5.12 µM
[10] = RPMI 5 mM glucose + 10% FBS, 15.4 µM
[11] = RPMI 5 mM glucose + 10% FBS, 46.1 µM
[12] = HPLM + 10% dialyzed FBS, 0.000781 µM
[13] = HPLM + 10% dialyzed FBS, 0.00234 µM
[14] = HPLM + 10% dialyzed FBS, 0.00702 µM
[15] = HPLM + 10% dialyzed FBS, 0.0211 µM
[16] = HPLM + 10% dialyzed FBS, 0.0632 µM
[17] = HPLM + 10% dialyzed FBS, 0.19 µM
[18] = HPLM + 10% dialyzed FBS, 0.569 µM
[19] = HPLM + 10% dialyzed FBS, 1.71 µM
[20] = HPLM + 10% dialyzed FBS, 5.12 µM
[21] = HPLM + 10% dialyzed FBS, 15.4 µM
[22] = HPLM + 10% dialyzed FBS, 46.1 µM
[23] = RPMI 5 mM glucose + 10% dialyzed FBS, 0.000781 µM
[24] = RPMI 5 mM glucose + 10% dialyzed FBS, 0.00234 µM
[25] = RPMI 5 mM glucose + 10% dialyzed FBS, 0.00702 µM
[26] = RPMI 5 mM glucose + 10% dialyzed FBS, 0.0211 µM
[27] = RPMI 5 mM glucose + 10% dialyzed FBS, 0.0632 µM
[28] = RPMI 5 mM glucose + 10% dialyzed FBS, 0.19 µM
[29] = RPMI 5 mM glucose + 10% dialyzed FBS, 0.569 µM
[30] = RPMI 5 mM glucose + 10% dialyzed FBS, 1.71 µM
[31] = RPMI 5 mM glucose + 10% dialyzed FBS, 5.12 µM
[32] = RPMI 5 mM glucose + 10% dialyzed FBS, 15.4 µM
[33] = RPMI 5 mM glucose + 10% dialyzed FBS, 46.1 µM

SMILES | cell viability [1] [%] | cell viability [2] [%] | cell viability [3] [%] | cell viability [4] [%] | cell viability [5] [%] | cell viability [6] [%] | cell viability [7] [%] | cell viability [8] [%] | cell viability [9] [%] | cell viability [10] [%] | cell viability [11] [%] | cell viability [12] [%] | cell viability [13] [%] | cell viability [14] [%] | cell viability [15] [%] | cell viability [16] [%] | cell viability [17] [%] | cell viability [18] [%] | cell viability [19] [%] | cell viability [20] [%] | cell viability [21] [%] | cell viability [22] [%] | cell viability [23] [%] | cell viability [24] [%] | cell viability [25] [%] | cell viability [26] [%] | cell viability [27] [%] | cell viability [28] [%] | cell viability [29] [%] | cell viability [30] [%] | cell viability [31] [%] | cell viability [32] [%] | cell viability [33] [%]
C=CCc1cccc(/C=N/NC(=O)CN2CCN(Cc3ccccc3)CC2)c1O | 120 | 115 | 108 | 119 | 116 | 109 | 114 | 100 | 115 | 96.5 | 8.9 | – | – | – | – | – | – | – | – | – | – | – | – | – | – | – | – | – | – | – | – | – | –
COc1cccc([C@@H](C)NCCCc2ccccc2Cl)c1 | 84.4 | 86.1 | 87.2 | 97.5 | 93.9 | 88 | 94.7 | 86.1 | 94.8 | 94.6 | 101 | 83 | 104 | 83.2 | 111 | 91.5 | 113 | 95.6 | 110 | 103 | 95.9 | 110 | 86.2 | 100 | 92.3 | 84.4 | 100 | 101 | 87.9 | 90 | 111 | 106 | 104
COc1ccc([C@@H]2CC(=O)c3c(O)cc(O[C@@H]4O[C@H](CO[C@@H]5O[C@@H](C)[C@H](O)[C@@H](O)[C@H]5O)[C@@H](O)[C@H](O)[C@H]4O)cc3O2)cc1O | 102 | 100 | 121 | 117 | 105 | 105 | 110 | 102 | 108 | 124 | 120 | 106 | 104 | 121 | 111 | 115 | 97.7 | 112 | 123 | 117 | 109 | 117 | 94.3 | 101 | 115 | 122 | 124 | 107 | 123 | 116 | 114 | 114 | 104
Cc1cnc(C(=O)O)c[n+]1[O-] | 109 | 122 | 110 | 127 | 129 | 115 | 101 | 118 | 105 | 103 | 112 | – | – | – | – | – | – | – | – | – | – | – | – | – | – | – | – | – | – | – | – | – | –
COC(=O)C1C2CC3c4[nH]c5cc(OC)ccc5c4CCN3CC2CC(OC(=O)c2cc(OC)c(OC)c(OC)c2)C1OC (stereo not given) | 106 | 94.6 | 107 | 103 | 95.2 | 104 | 93.4 | 94.1 | 96.4 | 95.7 | 90.2 | 108 | 123 | 101 | 125 | 119 | 112 | 115 | 106 | 112 | 102 | 81.3 | 105 | 101 | 103 | 93.8 | 92.1 | 98.2 | 98.5 | 105 | 102 | 112 | 82.9
CCCCCCCCCC(=O)N[C@@H](Cc1c[nH]c2ccccc12)C(=O)N[C@H](CC(N)=O)C(=O)N[C@@H](CC(=O)O)C(=O)N[C@@H]1C(=O)NCC(=O)N[C@@H](CCCN)C(=O)N[C@@H](CC(=O)O)C(=O)N[C@H](C)C(=O)N[C@@H](CC(=O)O)C(=O)NCC(=O)N[C@H](CO)C(=O)N[C@@H]([C@@H](C)CC(=O)O)C(=O)N[C@@H](CC(=O)c2ccccc2N)C(=O)O[C@@H]1C | 98.9 | 112 | 102 | 122 | 111 | 104 | 121 | 124 | 108 | 117 | 111 | 105 | 118 | 118 | 132 | 108 | 123 | 119 | 133 | 149 | 106 | 114 | 103 | 116 | 103 | 111 | 125 | 106 | 141 | 131 | 102 | 118 | 80.3
CCCCC(C=O)NC(=O)C(CC(C)C)NC(=O)OCc1ccccc1 (stereo not given) | 91.8 | 93.3 | 90.1 | 102 | 93.7 | 88.9 | 85.4 | 72.7 | 80.2 | 68.6 | 77.6 | 104 | 98.5 | 86.4 | 94.7 | 85.5 | 83 | 92.2 | 82.7 | 89.4 | 82 | 55.9 | 103 | 93.3 | 95.1 | 97.4 | 101 | 83.9 | 90.4 | 82.2 | 77.6 | 80.9 | 70.1
Cc1cc(C(=O)N2CCN(c3cccc(Cl)c3)CC2)n(-c2ccccc2)n1 | 90.3 | 99.9 | 96.1 | 97.5 | 94.5 | 99.7 | 99.6 | 92.2 | 69.7 | 15.9 | 14.8 | 116 | 115 | 114 | 97.7 | 115 | 116 | 91.8 | 70.7 | 30.7 | 26.5 | 29.3 | 98 | 100 | 96.6 | 90.7 | 89.7 | 109 | 90.5 | 85.9 | 38.3 | 22 | 24.1
